Values after ≈ are worked out from the molar mass of the structure shown. Active and inactive are the calls of the source. The rule behind the calls is not given here.
Tests used:
Staphylococcus aureus = assay: Antimicrobial activity against Staphylococcus aureus after 20 hrs by agar dilution method; type: functional
Klebsiella pneumoniae = assay: Antimicrobial activity against Klebsiella pneumoniae after 20 hrs by agar dilution method; type: functional

Row | SMILES | Activity (Staphylococcus aureus) | Activity (Klebsiella pneumoniae) | MIC (Staphylococcus aureus) [µg/mL] | MIC (Klebsiella pneumoniae) [µg/mL]
1 | COC(=O)C1=CO[C@@H](O[C@@H]2O[C@H](CO)[C@@H](O)[C@H](O)[C@H]2O)[C@H]2[C@@H]1C=C[C@]2(O)CO | Active | Active |  | 
2 | COC(=O)C1=CO[C@@H](O)[C@H]2[C@@H]1C=C[C@]2(O)CO |  |  | 125 (≈ 516 µM) | 1000 (≈ 4130 µM)

Reference: ChEMBL document CHEMBL1145663, “Studies on iridoid-related compounds, II. The structure and antimicrobial activity of aglucones of galioside and gardenoside” (1983)
